Measurements taken from ChEMBL document CHEMBL4706587 (Eur J Med Chem, 2020).

Columns and labels:
[1] = target: T1, Amine oxidase [flavin-containing] B (Homo sapiens, UniProt P27338); conditions: BTI, 1 h, read-out: INH
T1 sequence (P27338 whole entry): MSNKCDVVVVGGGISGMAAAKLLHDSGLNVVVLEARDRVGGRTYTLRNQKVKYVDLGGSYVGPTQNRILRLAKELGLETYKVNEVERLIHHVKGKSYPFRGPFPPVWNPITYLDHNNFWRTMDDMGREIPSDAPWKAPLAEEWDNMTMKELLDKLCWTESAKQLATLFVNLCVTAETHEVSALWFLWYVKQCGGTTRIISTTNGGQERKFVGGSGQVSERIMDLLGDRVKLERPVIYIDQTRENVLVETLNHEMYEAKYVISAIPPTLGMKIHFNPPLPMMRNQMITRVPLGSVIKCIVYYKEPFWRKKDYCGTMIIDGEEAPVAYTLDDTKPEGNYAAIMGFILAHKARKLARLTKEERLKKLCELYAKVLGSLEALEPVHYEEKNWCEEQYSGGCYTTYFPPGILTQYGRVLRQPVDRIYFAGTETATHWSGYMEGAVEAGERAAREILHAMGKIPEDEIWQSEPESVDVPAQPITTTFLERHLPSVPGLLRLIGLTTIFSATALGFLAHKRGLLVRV
Description: Inhibition of recombinant human MAO-B expressed in baculovirus infected BTI insect cells at 1 uM using p-tyramine as substrate preincubated for 30 mins followed by substrate addition and measured after 1 hr by fluorimetric analysis relative to control

[2] = target: D(2) dopamine receptor (Homo sapiens, UniProt P14416); experiment: Displacement of [3H]-raclopride from human D2 receptor expressed in HEK293 cells measured after 1 hr by microbeta plate reader analysis; type: cell-based
D(2) dopamine receptor, sequence (P14416 whole entry): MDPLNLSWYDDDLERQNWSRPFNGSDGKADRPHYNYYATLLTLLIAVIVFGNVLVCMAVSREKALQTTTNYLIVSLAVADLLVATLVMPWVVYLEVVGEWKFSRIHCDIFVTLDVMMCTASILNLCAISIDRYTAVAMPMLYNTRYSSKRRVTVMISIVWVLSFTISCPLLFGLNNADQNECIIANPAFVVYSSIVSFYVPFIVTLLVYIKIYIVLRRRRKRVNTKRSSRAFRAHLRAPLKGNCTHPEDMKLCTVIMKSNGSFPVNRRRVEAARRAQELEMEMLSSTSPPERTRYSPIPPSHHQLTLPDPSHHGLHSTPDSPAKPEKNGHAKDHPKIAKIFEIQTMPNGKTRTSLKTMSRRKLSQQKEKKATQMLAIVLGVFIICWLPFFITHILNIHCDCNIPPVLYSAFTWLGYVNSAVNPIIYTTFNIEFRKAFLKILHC

[3] = target: T1, Amine oxidase [flavin-containing] B; experiment: Inhibition of recombinant human MAO-B expressed in baculovirus infected BTI insect cells using p-tyramine as substrate preincubated for 30 mins followed by substrate addition and measured after 1 hr by fluorimetric analysis
[4] = target: T2, 5-hydroxytryptamine receptor 1A (Homo sapiens, UniProt P08908); experiment: Displacement of [3H]8-OH-DPAT from human 5HT1A receptor expressed in HEK293 cells incubated at room temperature for 1 hr by microbeta plate reader analysis; type: cell-based
T2 sequence (P08908 whole entry): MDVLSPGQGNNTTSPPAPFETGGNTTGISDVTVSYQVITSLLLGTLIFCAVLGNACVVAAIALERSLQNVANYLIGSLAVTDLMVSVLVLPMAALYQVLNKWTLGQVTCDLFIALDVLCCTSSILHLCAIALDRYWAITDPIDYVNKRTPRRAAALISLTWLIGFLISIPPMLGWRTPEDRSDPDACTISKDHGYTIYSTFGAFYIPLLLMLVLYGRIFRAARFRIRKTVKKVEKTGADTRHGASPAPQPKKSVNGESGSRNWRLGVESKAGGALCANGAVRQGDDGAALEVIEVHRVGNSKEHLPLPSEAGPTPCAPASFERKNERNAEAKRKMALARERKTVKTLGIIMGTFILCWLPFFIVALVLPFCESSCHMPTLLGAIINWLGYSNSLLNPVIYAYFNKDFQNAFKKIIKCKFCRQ

[5] = target: beta1 adrenoceptor (Homo sapiens, UniProt P08588); experiment: Displacement of [3H](-)CGP 12177 from human recombinant beta1 adrenoceptor at 1 uM after 60 mins by radiometric scintillation analysis relative to control; conditions: probe [3H](-)CGP 12177
beta1 adrenoceptor, sequence (P08588 whole entry): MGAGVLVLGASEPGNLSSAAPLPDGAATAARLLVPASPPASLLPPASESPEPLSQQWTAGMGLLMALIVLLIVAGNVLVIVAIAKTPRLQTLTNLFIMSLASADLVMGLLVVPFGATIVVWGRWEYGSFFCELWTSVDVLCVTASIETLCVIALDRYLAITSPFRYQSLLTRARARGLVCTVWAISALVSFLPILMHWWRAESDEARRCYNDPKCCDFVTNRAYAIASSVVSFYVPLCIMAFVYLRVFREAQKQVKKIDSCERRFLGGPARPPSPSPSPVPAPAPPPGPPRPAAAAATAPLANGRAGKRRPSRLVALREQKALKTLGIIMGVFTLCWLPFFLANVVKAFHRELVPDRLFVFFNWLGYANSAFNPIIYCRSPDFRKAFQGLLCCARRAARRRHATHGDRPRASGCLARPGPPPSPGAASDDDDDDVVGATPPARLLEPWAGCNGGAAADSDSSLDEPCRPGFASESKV

[6] = target: T3, muscarinic M1 receptor (Homo sapiens, UniProt P11229); experiment: Displacement of [3H]pirenzepine from human recombinant muscarinic M1 receptor at 1 uM after 60 mins by radiometric scintillation analysis relative to control; conditions: probe [3H]pirenzepine
T3 sequence (P11229 whole entry): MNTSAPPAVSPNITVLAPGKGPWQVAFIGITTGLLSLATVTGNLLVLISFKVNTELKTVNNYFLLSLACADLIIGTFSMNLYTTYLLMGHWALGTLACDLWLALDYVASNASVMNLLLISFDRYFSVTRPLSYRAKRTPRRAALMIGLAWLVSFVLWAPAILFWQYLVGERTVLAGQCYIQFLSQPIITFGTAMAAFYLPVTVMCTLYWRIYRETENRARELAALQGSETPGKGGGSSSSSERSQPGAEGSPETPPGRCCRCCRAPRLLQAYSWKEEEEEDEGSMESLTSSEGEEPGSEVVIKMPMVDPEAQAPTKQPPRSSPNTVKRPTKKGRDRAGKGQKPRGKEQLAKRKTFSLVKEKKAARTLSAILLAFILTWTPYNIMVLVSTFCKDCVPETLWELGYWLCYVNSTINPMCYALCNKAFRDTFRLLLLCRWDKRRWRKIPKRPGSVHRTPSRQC

[7] = Half life in Wistar rat at 3 mg/kg, po measured up to 240 mins; type: ADME, organism-based; conditions: in vivo
[8] = target: T4, adrenergic alpha1A receptor (Homo sapiens, UniProt P35348); experiment: Displacement of [3H]-prazosin from human recombinant adrenergic alpha1A receptor at 1 uM incubated for 60 mins by radiometric scintillation analysis relative to control; conditions: probe [3H]-prazosin
T4 sequence (P35348 whole entry): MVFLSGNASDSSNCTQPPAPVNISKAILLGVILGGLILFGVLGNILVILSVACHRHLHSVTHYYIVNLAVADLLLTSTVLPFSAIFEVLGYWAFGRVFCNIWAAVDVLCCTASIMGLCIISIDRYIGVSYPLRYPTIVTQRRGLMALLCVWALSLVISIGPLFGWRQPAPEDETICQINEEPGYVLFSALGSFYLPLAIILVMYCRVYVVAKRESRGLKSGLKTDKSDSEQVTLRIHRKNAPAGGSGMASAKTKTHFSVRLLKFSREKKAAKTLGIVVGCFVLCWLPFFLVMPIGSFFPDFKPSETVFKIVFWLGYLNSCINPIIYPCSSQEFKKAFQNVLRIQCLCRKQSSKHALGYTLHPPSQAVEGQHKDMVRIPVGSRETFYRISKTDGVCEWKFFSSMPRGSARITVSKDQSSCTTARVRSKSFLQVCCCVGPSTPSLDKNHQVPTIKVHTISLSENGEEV

[9] = Cmax in Wistar rat at 3 mg/kg, po measured up to 240 mins; type: ADME, organism-based; design: route oral, dose 3 mg/kg, time <=240; conditions: in vivo
[10] = Tmax in Wistar rat at 3 mg/kg, po measured up to 240 mins; type: ADME, organism-based; conditions: in vivo
[11] = target: 5-hydroxytryptamine receptor 2A (Homo sapiens, UniProt P28223); experiment: Displacement of [3H]-Ketanserin from human 5HT2A receptor expressed in CHOK1 cells incubated at 27 degree C for 1 hr by microbeta plate reader analysis; type: cell-based, CHO-K1
5-hydroxytryptamine receptor 2A, sequence (P28223 whole entry): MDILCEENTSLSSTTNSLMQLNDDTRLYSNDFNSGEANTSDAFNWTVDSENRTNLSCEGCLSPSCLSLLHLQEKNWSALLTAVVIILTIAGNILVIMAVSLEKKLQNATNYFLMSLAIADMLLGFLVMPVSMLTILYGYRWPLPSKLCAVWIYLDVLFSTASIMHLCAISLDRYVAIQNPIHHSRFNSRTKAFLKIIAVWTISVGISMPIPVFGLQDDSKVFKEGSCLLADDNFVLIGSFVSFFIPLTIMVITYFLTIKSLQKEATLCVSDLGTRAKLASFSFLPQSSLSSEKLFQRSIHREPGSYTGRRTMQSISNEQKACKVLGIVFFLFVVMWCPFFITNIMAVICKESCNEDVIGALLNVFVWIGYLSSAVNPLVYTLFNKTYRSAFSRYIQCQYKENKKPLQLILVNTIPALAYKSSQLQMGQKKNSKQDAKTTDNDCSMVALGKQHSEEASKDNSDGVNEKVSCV

[12] = Effective permeability of compound in PBS at pH 7.4 at 100 uM incubated for 5 hrs by PAMPA-BBB based UPLC-MS analysis; type: ADME; conditions: read-out: Peff
[13] = target: 5-hydroxytryptamine receptor 7 (Homo sapiens, UniProt P34969); experiment: Displacement of [3H]-5-CT from human 5HT7 receptor expressed in HEK293 cells measured after 1 hr by microbeta plate reader analysis; type: cell-based
5-hydroxytryptamine receptor 7, sequence (P34969 whole entry): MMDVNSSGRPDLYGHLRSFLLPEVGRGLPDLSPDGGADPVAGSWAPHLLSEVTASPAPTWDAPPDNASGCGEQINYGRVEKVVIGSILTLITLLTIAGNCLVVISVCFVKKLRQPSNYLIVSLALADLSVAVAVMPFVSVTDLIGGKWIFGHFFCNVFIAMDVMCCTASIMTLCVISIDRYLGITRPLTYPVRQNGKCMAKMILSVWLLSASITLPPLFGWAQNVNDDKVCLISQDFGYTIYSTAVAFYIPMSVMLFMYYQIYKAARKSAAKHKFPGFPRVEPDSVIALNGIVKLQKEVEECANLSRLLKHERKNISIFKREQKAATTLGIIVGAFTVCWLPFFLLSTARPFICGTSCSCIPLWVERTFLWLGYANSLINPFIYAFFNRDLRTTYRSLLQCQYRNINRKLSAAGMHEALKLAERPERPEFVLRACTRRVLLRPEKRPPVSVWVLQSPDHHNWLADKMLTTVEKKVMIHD

[14] = target: T5, Amine oxidase [flavin-containing] A (Homo sapiens, UniProt P21397); experiment: Inhibition of recombinant human MAO-A expressed in baculovirus infected BTI insect cells using p-tyramine as substrate preincubated for 30 mins followed by substrate addition and measured after 1 hr by fluorimetric analysis
T5 sequence (P21397 whole entry): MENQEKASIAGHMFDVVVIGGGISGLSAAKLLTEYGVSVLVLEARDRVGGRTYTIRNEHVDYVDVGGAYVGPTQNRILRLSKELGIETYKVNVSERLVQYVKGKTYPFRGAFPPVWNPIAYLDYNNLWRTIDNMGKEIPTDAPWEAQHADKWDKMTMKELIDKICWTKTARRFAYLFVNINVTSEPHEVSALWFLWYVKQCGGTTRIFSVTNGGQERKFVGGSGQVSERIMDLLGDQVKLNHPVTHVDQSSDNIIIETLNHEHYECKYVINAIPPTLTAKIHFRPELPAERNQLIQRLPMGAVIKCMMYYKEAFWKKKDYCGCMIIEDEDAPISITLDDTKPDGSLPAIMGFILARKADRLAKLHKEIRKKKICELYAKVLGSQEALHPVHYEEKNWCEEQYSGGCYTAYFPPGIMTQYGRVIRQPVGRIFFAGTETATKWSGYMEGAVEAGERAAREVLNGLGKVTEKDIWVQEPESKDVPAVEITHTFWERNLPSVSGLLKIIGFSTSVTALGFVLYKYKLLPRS

[15] = Cytotoxicity against mouse C8D1A astrocytes upto 25 uM by LDH assay; conditions: astrocyte
[16] = target: histamine H1 receptor (Homo sapiens, UniProt P35367); experiment: Displacement of [3H]pyrilamine from human recombinant histamine H1 receptor at 1 uM after 60 mins by radiometric scintillation analysis relative to control; conditions: probe [3H]pyrilamine
histamine H1 receptor, sequence (P35367 whole entry): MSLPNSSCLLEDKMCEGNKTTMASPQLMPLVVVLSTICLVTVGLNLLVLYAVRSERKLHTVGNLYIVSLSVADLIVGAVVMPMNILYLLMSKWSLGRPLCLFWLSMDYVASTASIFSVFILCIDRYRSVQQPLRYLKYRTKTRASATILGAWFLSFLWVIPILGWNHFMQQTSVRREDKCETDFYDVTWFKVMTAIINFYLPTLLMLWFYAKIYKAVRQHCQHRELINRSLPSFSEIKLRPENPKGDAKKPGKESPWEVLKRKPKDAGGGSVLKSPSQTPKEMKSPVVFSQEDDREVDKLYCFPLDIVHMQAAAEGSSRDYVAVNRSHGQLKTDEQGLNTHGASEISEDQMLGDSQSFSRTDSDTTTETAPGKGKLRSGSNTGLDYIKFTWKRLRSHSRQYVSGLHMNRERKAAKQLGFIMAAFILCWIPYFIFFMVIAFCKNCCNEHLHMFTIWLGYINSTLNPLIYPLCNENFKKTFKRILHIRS

[17] = Cytotoxicity against mouse C8D1A astrocytes upto 25 uM by MTT assay; conditions: astrocyte
[18] = Metabolic stability in rat liver microsomes assessed as intrinsic clearance at 10 uM incubated for 10 mins followed by NADPH regeneration system addition and measured after 60 mins by UPLC-MS analysis; type: ADME, Microsome; conditions: time 70 min, read-out: CLH
[19] = target: 5-hydroxytryptamine receptor 6 (Homo sapiens, UniProt P50406); experiment: Displacement of [3H]-LSD from human 5HT6 receptor expressed in HEK293 cells measured after 1 hr by microbeta plate reader method; type: cell-based
5-hydroxytryptamine receptor 6, sequence (P50406 whole entry): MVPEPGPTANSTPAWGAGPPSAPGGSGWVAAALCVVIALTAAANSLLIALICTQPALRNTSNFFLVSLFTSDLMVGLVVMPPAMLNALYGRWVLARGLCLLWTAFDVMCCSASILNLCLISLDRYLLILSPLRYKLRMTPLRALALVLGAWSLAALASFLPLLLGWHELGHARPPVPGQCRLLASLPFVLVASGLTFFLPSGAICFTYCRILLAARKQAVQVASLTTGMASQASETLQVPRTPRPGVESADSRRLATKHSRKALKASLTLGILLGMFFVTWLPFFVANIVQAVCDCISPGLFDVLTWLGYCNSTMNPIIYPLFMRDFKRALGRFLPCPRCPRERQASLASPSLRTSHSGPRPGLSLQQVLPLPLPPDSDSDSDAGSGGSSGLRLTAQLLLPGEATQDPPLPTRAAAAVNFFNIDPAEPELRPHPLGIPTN

SMILES	inhibition at 1 µM [1] [%]	IC50 [3] [nM]	Ki [19] [nM]	further results
O=S(=O)(c1ccccc1)n1ccc2c(N3CCNCC3)cccc21	3	–	–	–
C#CCN(C)Cc1ccc(OCCCCCN2CCN(c3cccc4c3ccn4S(=O)(=O)c3ccccc3)CC2)cc1	91	154	–	Ki [2]: 813 nM; Ki [4]: 684 nM; inhibition at 1 h, 1 µM [5]: 5%; inhibition at 1 h, 1 µM [6]: 4%; half-life [7]: 28 h; inhibition at 1 h, 1 µM [8]: 37%; Cmax [9]: 72.7 ng/mL; Tmax [10]: 0.5 h; Ki [11]: 420 nM; Papp at 5 h, 100 µM [12]: 4.84 ×10⁻⁶ cm/s; Ki [13]: 8000 nM; IC50 [14]: 1040 nM; Activity [15]: Non-Toxic; inhibition at 1 h, 1 µM [16]: 13%; Activity [17]: Non-Toxic; CLint scaled at 10 µM [18]: 85 mL/min/kg
C#CCNC1CCc2c(OCCCCN3CCN(c4cccc5c4ccn5S(=O)(=O)c4ccccc4)CC3)cccc21 (stereo not drawn)	44	> 1000	50	–
C#CCNC1CCc2c(OCCCCCCN3CCN(c4cccc5c4ccn5Cc4cccc(Cl)c4)CC3)cccc21 (stereo not drawn)	34	> 1000	259	–
C[C@H](NCc1ccc(OCCCCCCN2CCN(c3cccc4c3ccn4Cc3cccc(Cl)c3)CC2)cc1)C(N)=O	23	> 1000	340	–
C[C@H](NCc1ccc(OCCCCCN2CCN(c3cccc4c3ccn4S(=O)(=O)c3ccccc3)CC2)cc1)C(N)=O	17	> 1000	65	–
C#CCNC1CCc2c(OCCCCCN3CCN(c4cccc5c4ccn5Cc4cccc(Cl)c4)CC3)cccc21 (stereo not drawn)	80	460	223	–
C[C@H](NCc1ccc(OCCCCN2CCN(c3cccc4c3ccn4S(=O)(=O)c3ccccc3)CC2)cc1)C(N)=O	20	> 1000	68	–
C#CCN(C)Cc1ccc(OCCCCN2CCN(c3cccc4c3ccn4S(=O)(=O)c3ccccc3)CC2)cc1	51	> 1000	54	–
C[C@H](NCc1ccc(OCCCCN2CCN(c3cccc4c3ccn4Cc3cccc(Cl)c3)CC2)cc1)C(N)=O	24	> 1000	162	–
C#CCN(C)Cc1ccc(OCCCCCN2CCN(c3cccc4c3ccn4Cc3cccc(Cl)c3)CC2)cc1	100	30	140	–
C#CCN(C)Cc1ccc(OCCCCCCN2CCN(c3cccc4c3ccn4Cc3cccc(Cl)c3)CC2)cc1	32	> 1000	137	–
C#CCNC1CCc2c(OCCCN3CCN(c4cccc5c4ccn5Cc4cccc(Cl)c4)CC3)cccc21 (stereo not drawn)	31	> 1000	77	–
C#CCNC1CCc2c(OCCCCCN3CCN(c4cccc5c4ccn5S(=O)(=O)c4ccccc4)CC3)cccc21 (stereo not drawn)	90	163	51	–
Clc1cccc(Cn2ccc3c(N4CCNCC4)cccc32)c1	3	–	7	–
C#CCN(C)Cc1ccc(OCCCCN2CCN(c3cccc4c3ccn4Cc3cccc(Cl)c3)CC2)cc1	85	323	195	–
C[C@H](NCc1ccc(OCCCN2CCN(c3cccc4c3ccn4Cc3cccc(Cl)c3)CC2)cc1)C(N)=O	47	> 1000	158	–
C#CCNC1CCc2c(OCCN3CCN(c4cccc5c4ccn5Cc4cccc(Cl)c4)CC3)cccc21 (stereo not drawn)	35	> 1000	100	–
C#CCNC1CCc2c(OCCCCN3CCN(c4cccc5c4ccn5Cc4cccc(Cl)c4)CC3)cccc21 (stereo not drawn)	100	270	113	–
C[C@H](NCc1ccc(OCCCCCN2CCN(c3cccc4c3ccn4Cc3cccc(Cl)c3)CC2)cc1)C(N)=O	43	> 1000	232	–
C#CCN[C@@H]1CCc2ccccc21 [RASAGILINE]	–	–	1.4	–
